Source: patent publication US20100093747A1, “METHOD OF INDUCING NEGATIVE CHEMOTAXIS” (priority 2008, published 2010)
Marks after values point to notes of the source that are not given here.

Tested on: human neutrophils
Assay: Chemorepulsion (negative chemotaxis) of neutrophils in Neuroprobe ChemoTx plates, migrated cells quantified with Cell Titer Glo
Assay type: cell-based
Conditions: 0.048, 0.48, 4.8 or 48 uM; FIGS. 1A, 1B and 1C
Experimental: Prior to beginning the assay, the following were prepared: • a. 0.5% Fetal Calf Serum (FCS) in Iscove's Modified Dulbecco's Medium (IMDM) (Assay Medium) (Both from ATCC). • b. Migratory cells at a concentration of 2×10^7 cells/ml in Assay Medium. • c. Four serial (10-fold) dilutions of the ligand of interest in Assay Medium. All stocks were diluted initially 1:100 into Assay Medium and subsequently made into 10 fold dilutions (100 uM, 10 uM, 1 uM, 0.1 uM). […] The same dilutions were followed. • 2. […] The plates were removed from packaging, leaving the membrane behind. • 4. 31 μl of the following solutions were pipetted into each well: • a. For media controls and for chemorepulsion samples, Assay Medium was used. • b. For chemoattraction samples, appropriate dilution of ligand was used. • 5. A sterile needle was used to pop any and all small bubbles present in each well. • 6. The membrane was carefully placed onto the plate, starting at one side and then slowly lowering the other edge onto the plate. • 7. 29 μl of the following were pipetted onto the top of each circle: • a. For media controls and chemoattraction samples, use Assay Medium. • b. For chemorepulsion samples, use the appropriate dilution of ligand. • 8. 2 μl of cells (40,000 cells) were added to each bubble of liquid from step 7. • 9. A needle was used to pop all air bubbles. • 10. The plate was covered with the supplied lid and incubated for the desired time at 37° C. in 5% CO2. Unless otherwise indicated, the incubation time was 1 hour for neutrophils and 3 hours for T cells. For monocytes and B cells, the incubation time was 2 hours. • 11. After the desired assay time, the liquid was removed from the top of the plate using a Kimwipe. At this point, the plate was stored (with the membrane in place) for up to 2 hours at 4° C. • 12. The membrane was carefully removed from the top of the plate and discard. The plate was examined under a microscope to look for ligand crystallization, contamination and overall migration. • 13. White read plates were preloaded with 25 ul PBS. • 14. Using a multichannel pipettor, 5 ul of Cell Titer Glo (Promega # G7572) was added to each well. • 15. Using a multichannel pipettor set at 30 ul, lysed cell solution was transferred to white read plates pre-loaded with PBS. • 16. The plate was read using the BioTek Synergy4 plate reader in order to quantify the number of migrated cells.
Compounds from the chemical analog library were screened once in CR mode as described.

| Structure (SMILES) | chemorepulsion of neutrophils in response to the compound |
| --- | --- |
| COc1ccc2nc([S@@+]([O-])Cc3ncc(C)c(OC)c3C)[nH]c2c1 [esomeprazole, reference compound] | showed chemorepulsion |

Same assay, conditions: neutrophils, four 10-fold dilutions

| Structure (SMILES) | dose dependence of the induction of chemotaxis / chemorepulsion |
| --- | --- |
| COc1ccc2nc([S@@+]([O-])Cc3ncc(C)c(OC)c3C)[nH]c2c1 [esomeprazole, reference compound] | dose-dependent |

Same assay, conditions: neutrophils, methods of Example 1

| Structure (SMILES) | chemorepulsion class mark in Tables 1-4 |
| --- | --- |
| COc1ccc2[nH]c(SCC(=O)Nc3ccon3)nc2c1 [Compound 79] | 79* (Compounds that showed chemorepulsion that was at least 3-fold greater than media) |
| COc1ccc2[nH]c(SCC(=O)Nc3ccccc3F)nc2c1 [Compound 16] | 16* (Compounds that showed chemorepulsion that was at least 3-fold greater than media) |
| COc1ccc2[nH]c(SCC(=O)Nc3ccc(Br)cc3)nc2c1 [Compound 38] | 38* (Compounds that showed chemorepulsion that was at least 3-fold greater than media) |
| O=C(CSc1nc2cc([N+](=O)[O-])ccc2[nH]1)Nc1ccccc1F [Compound 12] | 12* (Compounds that showed chemorepulsion that was at least 3-fold greater than media) |
| CCOc1ccc2[nH]c(SCC(=O)Nc3ccc(O)c(C(=O)O)c3)nc2c1 [Compound 58] | 58* (Compounds that showed chemorepulsion that was at least 3-fold greater than media) |
| COc1ccc2[nH]c(N3CCCC(C(=O)NCCc4ccccc4)C3)nc2c1 (stereo not shown) [Compound 157] | 157* (Compounds that showed chemorepulsion that was at least 3-fold greater than media) |
| COc1ccc2[nH]c(Sc3c(-c4ccccc4)c4cc(Cl)ccc4[nH]c3=O)nc2c1 [Compound 54] | 54* (Compounds that showed chemorepulsion that was at least 3-fold greater than media) |
| COc1ccc2[nH]c(SCc3ccc(Cl)c(Cl)c3)nc2c1 [Compound 22] | 22* (Compounds that showed chemorepulsion that was at least 3-fold greater than media) |
| COc1ccc2[nH]c(Sc3ccc(C(F)(F)F)cc3[N+](=O)[O-])nc2c1 [Compound 88] | 88* (Compounds that showed chemorepulsion that was at least 3-fold greater than media) |
| COc1ccc2[nH]c(N3CCCC(C(=O)NCCc4ccc(Cl)cc4)C3)nc2c1 (stereo not shown) [Compound 128] | 128* (Compounds that showed chemorepulsion that was at least 3-fold greater than media) |
| COc1ccc2[nH]c(Sc3c(-c4ccccc4)c4ccc(Cl)cc4[nH]c3=O)nc2c1 [Compound 99] | 99* (Compounds that showed chemorepulsion that was at least 3-fold greater than media) |
| COc1ccc2[nH]c(SCc3cccc(I)c3)nc2c1 [Compound 45] | 45* (Compounds that showed chemorepulsion that was at least 3-fold greater than media) |
| COc1ccc2[nH]c(SCC(=O)Nc3cc(NC(=O)CSc4nc5cc(OC)ccc5[nH]4)cc(C(=O)O)c3)nc2c1 [Compound 43] | 43* (Compounds that showed chemorepulsion that was at least 3-fold greater than media) |
| COc1ccc2[nH]c(SCC(=O)Nc3ccc(Cl)cc3)nc2c1 [Compound 40] | 40* (Compounds that showed chemorepulsion that was at least 3-fold greater than media) |
| CCOc1ccc2[nH]c(SCC(=O)Nc3nccs3)nc2c1 [Compound 60] | 60* (Compounds that showed chemorepulsion that was at least 3-fold greater than media) |
| COc1ccc2[nH]c(SCC(=O)NCc3ccccc3)nc2c1 [Compound 15] | 15* (Compounds that showed chemorepulsion that was at least 3-fold greater than media) |
| COc1ccc2[nH]c(SCC(=O)c3ccc4c(c3)OCO4)nc2c1 [Compound 23] | 23* (Compounds that showed chemorepulsion that was at least 3-fold greater than media) |

| Structure (SMILES) | chemorepulsion class mark in Tables 1-4 |
| --- | --- |
| COc1ccc(NC(=O)CSc2nc3cc([N+](=O)[O-])ccc3[nH]2)c(OC)c1 [Compound 33] | 33* (Compounds that showed chemorepulsion that was at least 3-fold greater than media) |
| O=C(CSc1nc2cc([N+](=O)[O-])ccc2[nH]1)Nc1ccc(O)c(C(=O)O)c1 [Compound 59] | 59* (Compounds that showed chemorepulsion that was at least 3-fold greater than media) |
| CCOc1ccc2[nH]c(SCC(=O)N(c3ccccc3)C(C)C)nc2c1 [Compound 62] | 62* (Compounds that showed chemorepulsion that was at least 3-fold greater than media) |
| COc1ccc2[nH]c(SCC(=O)Nc3ccc([N+](=O)[O-])cc3)nc2c1 [Compound 42] | 42* (Compounds that showed chemorepulsion that was at least 3-fold greater than media) |
| COc1ccc2[nH]c(SCC(=O)Nc3ccccc3Br)nc2c1 [Compound 39] | 39* (Compounds that showed chemorepulsion that was at least 3-fold greater than media) |
| CSc1nc2cc(Cl)c(Oc3ccc4ccccc4c3Br)cc2[nH]1 [Compound 136] | 136* (Compounds that showed chemorepulsion that was at least 3-fold greater than media) |
| COc1ccc2[nH]c(SCc3cnc(C)nc3N)nc2c1 [Compound 80] | 80* (Compounds that showed chemorepulsion that was at least 3-fold greater than media) |
| COc1ccc2[nH]c(SCC(=O)Nc3nc4ccc(OC)cc4s3)nc2c1 [Compound 17] | 17* (Compounds that showed chemorepulsion that was at least 3-fold greater than media) |
| COc1ccc2[nH]c(SCC(=O)Nc3ccccc3[N+](=O)[O-])nc2c1 [Compound 41] | 41* (Compounds that showed chemorepulsion that was at least 3-fold greater than media) |
| COc1ccc(C(=O)CSc2nc3cc(OC)ccc3[nH]2)cc1 [Compound 21] | 21* (Compounds that showed chemorepulsion that was at least 3-fold greater than media) |
| O=[N+]([O-])c1ccc2nc(-c3cn4ccsc4n3)sc2c1 [Compound 132] | 132* (Compounds that showed chemorepulsion that was at least 3-fold greater than media) |
| CCOc1ccc2[nH]c(SCC(=O)Nc3ccccc3)nc2c1 [Compound 63] | 63* (Compounds that showed chemorepulsion that was at least 3-fold greater than media) |
| COc1ccc2[nH]c(SCC(=O)Nc3cc(Cl)ccc3OC)nc2c1 [Compound 37] | 37* (Compounds that showed chemorepulsion that was at least 3-fold greater than media) |
| COc1ccc2[nH]c(SCc3ccc(Cl)cc3)nc2c1 [Compound 11] | 11* (Compounds that showed chemorepulsion that was at least 3-fold greater than media) |
| COc1ccc2[nH]c(SCC(=O)c3cc(C(C)(C)C)c(O)c(C(C)(C)C)c3)nc2c1 [Compound 20] | 20* (Compounds that showed chemorepulsion that was at least 3-fold greater than media) |
| COc1ccc2[nH]c(SCC(=O)Nc3ccc4c(c3)OCO4)nc2c1 [Compound 36] | 36* (Compounds that showed chemorepulsion that was at least 3-fold greater than media) |

Same assay, conditions: neutrophils, omeprazole 0.1, 1, 10 and 100 uM, FIG. 2

| Structure (SMILES) | chemorepulsion relative to cells treated with media alone |
| --- | --- |
| COc1ccc2[nH]c([S+]([O-])Cc3ncc(C)c(OC)c3C)nc2c1 (stereo not shown) [omeprazole, reference compound] | greater than 5 fold |

Same assay, conditions: neutrophils, rabeprazole at 106 uM, FIG. 59

| Structure (SMILES) | chemorepulsion over media |
| --- | --- |
| COCCCOc1ccnc(C[S+]([O-])c2nc3ccccc3[nH]2)c1C (stereo not shown) [rabeprazole, reference compound] | greater than 3 fold |
